Here are results for 23 compounds from ChEMBL document CHEMBL1155865, “Discovery of triazolinone non-nucleoside inhibitors of HIV reverse transcriptase” (Bioorg Med Chem Lett, 2008).

Series [1] concerns the target T1, Human immunodeficiency virus type 1 reverse transcriptase (Human immunodeficiency virus 1, UniProt Q72547). Put plainly: Inhibition of wild type HIV1 reverse transcriptase polymerase activity by scintillation counting assay.
Series [2] addresses Human immunodeficiency virus type 1 reverse transcriptase (Human immunodeficiency virus 1) (UniProt Q72547). As to the kind of experiment: (§1) Binding affinity to wild type HIV1 reverse transcriptase by SPR assay. For orientation: In SPR one partner is held on a chip, and binding of the other changes the refractive index at the surface.
The nature of series [3]: Solubility of compound at pH 6.5. Format: physicochemical. As to conditions: buffer.
Series [4] has as its system Human immunodeficiency virus 1. Put plainly: Antiviral activity against HIV1 with wild type reverse transcriptase in MT4 cells assessed as inhibition of virus-induced cytopathic effect. To be noted: Human immunodeficiency virus 1, MT4. The format is functional, organism-based.
Series [5] concerns the target T1, Human immunodeficiency virus type 1 reverse transcriptase. Described as §1.
Series [6] is described as follows: Cmax in dog at 0.5 mg/kg, iv or 2 mg/kg, po. As to conditions: in vivo. The format is ADME, organism-based, Canis lupus familiaris.
A short description of series [7]: AUC (0 to infinity) in dog at 0.5 mg/kg, iv or 2 mg/kg, po. The format is ADME, organism-based, Canis lupus familiaris. As to conditions: plasma.
The subject of series [8] is Human immunodeficiency virus 1. As to the kind of experiment: Antiviral activity against HIV1 with reverse transcriptase […] mutant in MT4 cells assessed as inhibition of virus-induced cytopathic effect. To be noted: Human immunodeficiency virus 1, MT4. Format: functional, organism-based. A general note: Cytopathic effects are the visible damage that an infection or toxin causes in cultured cells.

Series [9] has as its system Human immunodeficiency virus 1. Put plainly: Antiviral activity against HIV1 with reverse transcriptase K103N/Y181C mutant in MT4 cells assessed as inhibition of virus-induced cytopathic effect. Format: functional, organism-based. As to conditions: Human immunodeficiency virus 1, MT4.
Series [10] can be described thus: Bioavailability in dog at 2 mg/kg, po. Format: ADME, organism-based, Canis lupus familiaris. As to conditions: in vivo.
Series [11] relates to Human immunodeficiency virus 1. As to the kind of experiment: Antiviral activity against HIV1 with reverse transcriptase Y181C mutant in MT4 cells assessed as inhibition of virus-induced cytopathic effect. The format is functional, organism-based. To be noted: Human immunodeficiency virus 1, MT4.
The next series deals with Caco-2. Put plainly: Apparent permeability across human Caco-2 cells. The format is ADME, cell-based.
Series [12] can be described thus: Clearance in dog at 0.5 mg/kg, iv or 2 mg/kg, po. The format is ADME, organism-based, Canis lupus familiaris. To be noted: in vivo.
The next series concerns Liver microsomes. Put plainly: Clearance in rat liver microsome per mg of protein. The format is ADME. Background: Liver microsomes are vesicles of endoplasmic reticulum, rich in cytochrome P450 enzymes.
The target of the next series is Cytochrome P450 3A4 (Homo sapiens, UniProt P08684). Put plainly: Inhibition of CYP3A4. The format is ADME.
For series [13], the system named is Human immunodeficiency virus 1. As to the kind of experiment: Antiviral activity against HIV1 with reverse transcriptase K103N/L100I mutant in MT4 cells assessed as inhibition of virus-induced cytopathic effect. To be noted: Human immunodeficiency virus 1, MT4. The format is functional, organism-based.

Values after ≈ are worked out from the molar mass of the structure shown. Active and inactive are the calls of the source. The calls are words filed in the database; no cut-off is given here.

Sequence of Cytochrome P450 3A4 (P08684 whole entry): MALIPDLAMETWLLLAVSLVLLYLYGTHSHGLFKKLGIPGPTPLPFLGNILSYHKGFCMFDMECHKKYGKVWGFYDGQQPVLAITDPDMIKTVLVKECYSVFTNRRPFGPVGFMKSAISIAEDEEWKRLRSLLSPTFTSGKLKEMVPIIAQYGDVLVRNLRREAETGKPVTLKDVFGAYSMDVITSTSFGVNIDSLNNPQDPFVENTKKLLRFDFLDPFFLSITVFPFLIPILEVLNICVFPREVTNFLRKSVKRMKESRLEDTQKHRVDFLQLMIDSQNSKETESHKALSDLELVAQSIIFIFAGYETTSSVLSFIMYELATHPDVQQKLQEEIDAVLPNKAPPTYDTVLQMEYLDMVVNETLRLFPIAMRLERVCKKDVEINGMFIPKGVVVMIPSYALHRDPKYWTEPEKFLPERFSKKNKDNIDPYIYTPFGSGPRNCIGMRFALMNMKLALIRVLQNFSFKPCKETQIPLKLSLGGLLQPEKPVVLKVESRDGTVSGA

A word on the IC50: it is the concentration that inhibits the measured activity by half. For `Cc1n[nH]c(=O)n1C`, in series [1], the half-inhibitory concentration (IC50) is above 100000 nM. In addition, the outcome in [2] was inactive.

Turning to `Cn1c(Cc2ccc(Cl)c(Oc3cccc(Br)c3)c2)n[nH]c1=O`, in [1], half-maximal inhibition (IC50) required 690 nM.

Broadly, the solubility is the dissolved amount per volume that the medium holds. The low end stands for a poorly soluble substance, the high end for a readily soluble substance. A word on the EC50: it is the concentration giving half of the maximal effect. The term Kd denotes a measure of binding affinity in units of concentration. A high value points to weaker binding. For orientation: Cmax means the maximum level reached in the sampled fluid or tissue. As a reminder, the AUC(0-inf) is the area under the concentration-time curve extrapolated to infinity. The bioavailability is the share of a dose that reaches the circulation, judged against a reference dose that is usually intravenous. A higher bioavailability goes with good availability. As a reminder, the Papp is the rate of passage across a membrane or cell layer, normalised by area and donor concentration. Compound `Cn1c(Cc2ccc(Br)c(Oc3cc(Cl)cc(C#N)c3)c2F)n[nH]c1=O` came in with an IC50 in series [1] of 5 nM. Moreover, the solubility in series [3] was determined as 2.4 µg/mL (≈ 5.48 µM). The EC50 in series [4] amounted to 2 nM; in series [8], 1 nM; in [9] it was 9 nM; in series [11], 5 nM. Besides, the Kd in series [5] is 4 nM. This compound had a Cmax in series [6] of 1300 nM. The same compound gave an AUC(0-inf) in [7] of 38.4 µM·h. For the same compound, the bioavailability in [10] was 74%. Moreover, the Papp in the series with Caco-2 is 15.1 10^-6 cm/s. This compound registered a clearance in [12] of 1.5 mL/min/kg.

As to `COc1c(Br)ccc(Cc2n[nH]c(=O)n2C)c1F`, the IC50 in series [1] worked out at 34000 nM. In addition, the Kd in [5] turned out to be 4000 nM.

For the compound `Cn1c(Cc2ccc(Cl)c(Oc3cc(Cl)cc(C#N)c3)c2F)n[nH]c1=O`, the IC50 in [1] came to 11 nM. For the same compound, the EC50 is 8 nM in series [4] and 39 nM in series [9].

`O=c1[nH]nc(Cc2ccc(Cl)c(Oc3cccc(Br)c3)c2)s1` had an IC50 in series [1] of 530 nM.

Take `C[C@H]1NC(Cc2ccc(Cl)c(Oc3cc(Cl)cc(C#N)c3)c2F)=NNC1=O`: the IC50 in series [1] is 11 nM. In the series on Liver microsomes, this compound had a clearance of 130 µL/min/mg. The values for the EC50 in series [4] and in [9] were 8 nM and 72 nM, respectively.

`Cc1ccc(Cc2n[nH]c(=O)n2C)c(F)c1Oc1cc(Cl)cc(C#N)c1`: the half-maximal inhibitory concentration (IC50) against Cytochrome P450 3A4 amounted to 12000 nM. The 50% effective concentration (EC50) was determined as 2 nM in series [4] and 26 nM in [9].

With `CCc1ccc(Cc2n[nH]c(=O)n2C)c(F)c1Oc1cc(Cl)cc(C#N)c1`, the EC50 was 2 nM in [4] and 4 nM in series [9].

On to `CN1CC(Cc2ccc(Cl)c(Oc3cccc(Br)c3)c2)=NNC1=O`, for which the IC50 in series [1] was found to be 150 nM.

For the compound `Cc1nc(Cc2ccc(Cl)c(Oc3cccc(Br)c3)c2)n[nH]c1=O`, it took 330 nM to reach half-maximal inhibition in series [1] (IC50).

`CC1OC(Cc2ccc(Cl)c(Oc3cccc(Br)c3)c2)=NNC1=O` (stereo not given) showed an IC50 in series [1] of 50 nM.

Consider `Cn1c(Cc2ccc(Br)cc2F)n[nH]c1=O`, for which the IC50 in series [1] was above 10000 nM. Further, the Kd in series [5] worked out at 102000 nM.

Regarding `Cn1c(Cc2ccc(C3CC3)c(Oc3cc(Cl)cc(C#N)c3)c2F)n[nH]c1=O`, the EC50 was determined as 2 nM in series [4] and 11 nM in series [9].

Regarding `Cn1c(Cc2ccccc2)n[nH]c1=O`, in [1], the concentration for half-maximal inhibition (IC50) is above 100000 nM. Further, in series [2], the result was inactive.

Consider `C[C@H]1CC(Cc2ccc(Cl)c(Oc3cc(Cl)cc(C#N)c3)c2F)=NNC1=O`, for which the midpoint of inhibition in series [1], the IC50, lay at 17 nM. Besides, the EC50 in series [4] was 32 nM.

For the compound `Cn1c(Cc2cccc(Oc3ccccc3)c2)n[nH]c1=O`, the IC50 in series [1] was 18000 nM. The compound further returned a Kd in series [5] of 3000 nM.

In turn, `O=c1[nH]nc(Cc2ccc(Cl)c(Oc3cccc(Br)c3)c2)o1` gave a 50% inhibitory concentration (IC50) in series [1] of 5800 nM.

As for `Cc1cc(Cc2ccc(Cl)c(Oc3cccc(Br)c3)c2)n[nH]c1=O`, in series [1], half-maximal inhibition (IC50) required 130 nM.

On to `Cc1cc(Cc2ccc(Cl)c(Oc3cc(Cl)cc(C#N)c3)c2F)n[nH]c1=O`, for which the EC50 was determined as 4 nM in [13], 1 nM in [4] and 19 nM in [9].

Regarding `CC1OC(Cc2ccc(Cl)c(Oc3cc(Cl)cc(C#N)c3)c2F)=NNC1=O` (stereo not given), the IC50 was determined as 13 nM in [1] and 270 nM on Cytochrome P450 3A4. The results for the EC50 in series [4] and in [9] were 5 nM and 34 nM, respectively.

In series [1], `CN(C)c1cc(Cc2ccc(Cl)c(Oc3cccc(Br)c3)c2)n[nH]c1=O` registered an IC50 of 230 nM.

For `Cn1c(Cc2ccc(Br)cc2)n[nH]c1=O`, the IC50 in series [1] was above 100000 nM. Besides, the Kd in [5] was found to be 388000 nM.
